Measurements: patent US4283398A, “Cephalosporins” (Mitsui Toatsu Chemicals, Inc., priority 1978, dated 1981)
Like-named read-outs stand apart in the source and are kept apart here.

How the values were obtained:
Assay in all cases: minimum growth inhibitory concentration (MIC) method
Format in all cases: cell-based
[1] = test system: Pseudomonas aeruginosa (NCTC 7244); conditions: NCTC7244, P. aeruginosa NCTC 7244, HIA medium, 37° C., 18 hours, sodium salts
Experimental: (§1) The antibacterial activities of the cephalosporins of this invention were measured using the sodium salts of the compounds obtained in Synthesis Examples 1 and 2. The procedure and the results are shown in Referential Example 1.
(§2) Carbenicillin sodium salt (CB-PC) and cephazoline sodium salt (CEZ) were used as controls.
(§3) The antibacterial activities of the test compounds against various Gram-positive and Gram-negative bacteria were determined in a customary manner by the minimum growth inhibitory concentration method (MIC method).
(§4) A commercially available heart infusion agar medium (to be abbreviated HIA medium) was used as an assay medium, and a commercially available trypto-soy bouillon medium (to be abbreviated TSB) was used as a medium for the growth of test bacterial strains.
(§5) The test compound was diluted with the melted HIA medium to 100 μg/ml as a maximum concentration, and then serially diluted double. The dilutions were poured into sterilized Petri dishes respectively and allowed to cool and solidify to prepare plates containing the test compound.
(§6) The test bacterial strain was cultivated at 37° C. for 18 to 24 hours in the TSB medium. The culture broth was diluted to 50 to 500 times with a freshly prepared TSB culture medium, and one platinum loopful of the dilution was inoculated in each of the plates containing the test compound. The plate was incubated at 37° C. for 18 hours, and the state of growth of the strain on the plate was observed, and the minimum growth inhibitory concentration (MIC) of the test compound was determined.

Proteus vulgaris (OX-19) = conditions: read-out: Minimum growth inhibitory concentration
Experimental: as §1, §2, §3, §4, §5, §6

Escherichia coli (NIHJ) = conditions: E. coli NIHJ, HIA medium, 37° C., 18 hours, sodium salts
Experimental: as §1, §2, §3, §4, §5, §6

Escherichia coli (K-12) = conditions: E. coli K-12, HIA medium, 37° C., 18 hours, sodium salts
Experimental: as §1, §2, §3, §4, §5, §6

[2] = test system: Pseudomonas aeruginosa (S-1); conditions: P. aeruginosa S-1, HIA medium, 37° C., 18 hours, sodium salts
Experimental: as §1, §2, §3, §4, §5, §6

[3] = test system: Bacillus cereus (IAM 1792); conditions: IAM1792, HIA medium, 37° C., 18 hours, sodium salts
Experimental: as §1, §2, §3, §4, §5, §6

[4] = test system: Pseudomonas aeruginosa (718); conditions: P. aeruginosa 718, HIA medium, 37° C., 18 hours, sodium salts
Experimental: as §1, §2, §3, §4, §5, §6

[5] = test system: Klebsiella pneumoniae (B-172); conditions: K. pneumoniae B-172, HIA medium, 37° C., 18 hours, sodium salts
Experimental: as §1, §2, §3, §4, §5, §6

[6] = test system: Staphylococcus aureus (FDA 209P); conditions: FDA209P, read-out: Minimum growth inhibitory concentration
Experimental: as §1, §2, §3, §4, §5, §6

[7] = test system: Klebsiella pneumoniae (Horino); conditions: K. pneumoniae Horino, HIA medium, 37° C., 18 hours, sodium salts
Experimental: as §1, §2, §3, §4, §5, §6

[8] = test system: Staphylococcus aureus (Y-8); conditions: S. aureus Y-8, HIA medium, 37° C., 18 hours, sodium salts
Experimental: as §1, §2, §3, §4, §5, §6

Proteus rettgeri (T-2) = conditions: Providencia rettgeri, HIA medium, 37° C., 18 hours, sodium salts
Experimental: as §1, §2, §3, §4, §5, §6

[9] = test system: Pseudomonas Maltophilia (F-6257); conditions: Stenotrophomonas maltophilia, HIA medium, 37° C., 18 hours, sodium salts
Experimental: as §1, §2, §3, §4, §5, §6

[10] = test system: Serratia marcescens (S-33); conditions: HIA medium, 37° C., 18 hours, sodium salts
Experimental: as §1, §2, §3, §4, §5, §6

[11] = test system: Enterobacter cloacae (D-49); conditions: HIA medium, 37° C., 18 hours, sodium salts
Experimental: as §1, §2, §3, §4, §5, §6

Shigella flexneri (K-A) = conditions: HIA medium, 37° C., 18 hours, sodium salts
Experimental: as §1, §2, §3, §4, §5, §6

[12] = test system: Streptococcus faecalis (Hoshi); conditions: Enterococcus faecalis, HIA medium, 37° C., 18 hours, sodium salts
Experimental: as §1, §2, §3, §4, §5, §6

[13] = test system: Salmonella enteritidis (KB-21); conditions: Salmonella enterica, read-out: Minimum growth inhibitory concentration
Experimental: as §1, §2, §3, §4, §5, §6

Escherichia coli (26R03) = conditions: E. coli 26R03, HIA medium, 37° C., 18 hours, sodium salts
Experimental: as §1, §2, §3, §4, §5, §6

[14] = test system: Pseudomonas aeruginosa (395); conditions: P. aeruginosa 395, HIA medium, 37° C., 18 hours, sodium salts
Experimental: as §1, §2, §3, §4, §5, §6

[15] = test system: Pseudomonas aeruginosa (ATCC 10145); conditions: ATCC10145, P. aeruginosa ATCC 10145, HIA medium, 37° C., 18 hours, sodium salts
Experimental: as §1, §2, §3, §4, §5, §6

[16] = test system: Pseudomonas aeruginosa (IFO-3901); conditions: IFO3901, P. aeruginosa IFO-3901, HIA medium, 37° C., 18 hours, sodium salts
Experimental: as §1, §2, §3, §4, §5, §6

Proteus morganii (C-39) = conditions: Morganella morganii, HIA medium, 37° C., 18 hours, sodium salts
Experimental: as §1, §2, §3, §4, §5, §6

[17] = test system: Citrobacter freundii (F-34); conditions: HIA medium, 37° C., 18 hours, sodium salts
Experimental: as §1, §2, §3, §4, §5, §6

[18] = test system: Escherichia coli (14H114); conditions: E. coli 14H114, HIA medium, 37° C., 18 hours, sodium salts
Experimental: as §1, §2, §3, §4, §5, §6

[19] = test system: Enterobacter aerogenes (IFO 3320); conditions: Klebsiella aerogenes, read-out: Minimum growth inhibitory concentration
Experimental: as §1, §2, §3, §4, §5, §6

[20] = test system: Klebsiella pneumoniae (ATCC 10031); conditions: read-out: Minimum growth inhibitory concentration
Experimental: as §1, §2, §3, §4, §5, §6

[21] = S. aureus FDA 209P, HIA medium, 37° C., 18 hours, sodium salts
[22] = IFO3320, Enterobacter aerogenes IFO 3320, HIA medium, 37° C., 18 hours, sodium salts
[23] = Proteus vulgaris OX-19, HIA medium, 37° C., 18 hours, sodium salts
[24] = ATCC10031, K. pneumoniae ATCC 10031, HIA medium, 37° C., 18 hours, sodium salts
[25] = Salmonella enteritidis KB-21, HIA medium, 37° C., 18 hours, sodium salts

## Cc1nnc(SCC2=C(C(=O)O)N3C(=O)[C@@H](NC(=O)Cn4cnnn4)[C@H]3SC2)s1 [CEZ, sodium 7-[1-(1H)-tetrazoylacetamido]-3-[2-(5-methyl-1,3,4-thiadiazoyl)-thiomethyl]-Δ^3, cephem-4-carboxylate, reference compound]
[1]
  MIC: > 100 µg/mL
Proteus vulgaris (OX-19); Proteus vulgaris, 18 h
  MIC: 1.56 µg/mL
Escherichia coli (NIHJ)
  MIC: 3.13 µg/mL
Escherichia coli (K-12)
  MIC: 3.13 µg/mL
[2]
  MIC: > 100 µg/mL
[3]
  MIC: 100 µg/mL
[4]
  MIC: > 100 µg/mL
[5]
  MIC: 3.13 µg/mL
[6]; [21]
  MIC: 0.2 µg/mL
[7]
  MIC: 3.13 µg/mL
[8]
  MIC: 0.78 µg/mL
Proteus rettgeri (T-2)
  MIC: 12.5 µg/mL
[9]
  MIC: > 100 µg/mL
[10]
  MIC: > 100 µg/mL
[11]
  MIC: > 100 µg/mL
Shigella flexneri (K-A)
  MIC: 1.56 µg/mL
[12]
  MIC: 25 µg/mL
[13]; ENTERITIDIS, 18 h
  MIC: 1.56 µg/mL
Escherichia coli (26R03)
  MIC: 50 µg/mL
[14]
  MIC: > 100 µg/mL
[15]
  MIC: > 100 µg/mL
[16]
  MIC: > 100 µg/mL
Proteus morganii (C-39)
  MIC: > 100 µg/mL
[17]
  MIC: 50 µg/mL
[18]
  MIC: 6.25 µg/mL
[19]; [22]
  MIC: 3.13 µg/mL
[20]; ATCC10031, 18 h
  MIC: 1.56 µg/mL

## CC1(C)S[C@@H]2[C@H](NC(=O)C(C(=O)O)c3ccccc3)C(=O)N2[C@H]1C(=O)O (stereo partly drawn) [CB-PC, disodium-α-carboxybenzyl penicillin, reference compound]
[1]
  MIC: 100 µg/mL
Proteus vulgaris (OX-19); [23]
  MIC: 6.25 µg/mL
Escherichia coli (NIHJ)
  MIC: 6.25 µg/mL
Escherichia coli (K-12)
  MIC: 6.25 µg/mL
[2]
  MIC: 25 µg/mL
[3]
  MIC: 100 µg/mL
[4]
  MIC: > 100 µg/mL
[5]
  MIC: 25 µg/mL
[6]; 18 h
  MIC: 1.56 µg/mL
[7]
  MIC: 100 µg/mL
[8]
  MIC: 12.5 µg/mL
Proteus rettgeri (T-2)
  MIC: 3.13 µg/mL
[9]
  MIC: 25 µg/mL
[10]
  MIC: 6.25 µg/mL
[11]
  MIC: > 100 µg/mL
Shigella flexneri (K-A)
  MIC: 1.56 µg/mL
[12]
  MIC: 50 µg/mL
[13]; ENTERITIDIS, 18 h
  MIC: 1.56 µg/mL
Escherichia coli (26R03)
  MIC: 3.13 µg/mL
[14]
  MIC: 25 µg/mL
[15]
  MIC: > 100 µg/mL
[16]
  MIC: 100 µg/mL
Proteus morganii (C-39)
  MIC: 6.25 µg/mL
[17]
  MIC: 3.13 µg/mL
[18]
  MIC: > 100 µg/mL
[19]; IFO3320, 18 h
  MIC: 1.56 µg/mL
[20]; [24]
  MIC: > 100 µg/mL

## Cn1nnnc1SCC1=C(C(=O)O)N2C(=O)C(NC(=O)[C@H](NC(=O)c3cnc4c(c3O)C(=O)CCC4)c3ccc(O)cc3)C2SC1 (single isomer, unassigned) [Synthesis Example 2, 7-[D-(-)-α-(4-hydroxy-5-oxo-5,6,7,8-tetrahydroquinoline-3-carboxamide)-α-(4-hydroxyphenyl)acetamido]-3-[[(1-methyl-1H-tetrazol-5-yl)thio]methyl]-Δ^3-cephem-4-carboxylic acid]
[1]
  MIC: 6.25 µg/mL
Proteus vulgaris (OX-19); [23]
  MIC: 0.78 µg/mL
Escherichia coli (NIHJ)
  MIC: 0.78 µg/mL
Escherichia coli (K-12)
  MIC: 0.39 µg/mL
[2]
  MIC: 1.56 µg/mL
[3]
  MIC: 12.5 µg/mL
[4]
  MIC: 12.5 µg/mL
[5]
  MIC: 0.78 µg/mL
[6]; [21]
  MIC: 1.56 µg/mL
[7]
  MIC: 0.78 µg/mL
[8]
  MIC: 3.13 µg/mL
Proteus rettgeri (T-2)
  MIC: 1.56 µg/mL
[9]
  MIC: 6.25 µg/mL
[10]
  MIC: 3.13 µg/mL
[11]
  MIC: 3.13 µg/mL
Shigella flexneri (K-A)
  MIC: 0.1 µg/mL
[12]
  MIC: 25 µg/mL
[13]; [25]
  MIC: 0.39 µg/mL
Escherichia coli (26R03)
  MIC: 0.78 µg/mL
[14]
  MIC: 1.56 µg/mL
[15]
  MIC: 12.5 µg/mL
[16]
  MIC: 12.5 µg/mL
Proteus morganii (C-39)
  MIC: 3.13 µg/mL
[17]
  MIC: 0.39 µg/mL
[18]
  MIC: 6.25 µg/mL
[19]; [22]
  MIC: 0.2 µg/mL
[20]; [24]
  MIC: 0.39 µg/mL

## Cn1nnnc1SCC1=C(C(=O)O)N2C(=O)C(NC(=O)[C@H](NC(=O)c3cnc4c(c3O)C(=O)CCC4)c3ccccc3)C2SC1 (single isomer, unassigned) [Synthesis Example 1, 7-[D-(-)-α-(4-hydroxy-5-oxo-5,6,7,8-tetrahydroquinoline-3-carboxamide)phenylacetamido)-3-[[(1-methyl-1H-tetrazol-5-yl)thio]methyl]-Δ^3-cephem-4-carboxylic acid]
[1]
  MIC: 12.5 µg/mL
Proteus vulgaris (OX-19); [23]
  MIC: 1.56 µg/mL
Escherichia coli (NIHJ)
  MIC: 0.78 µg/mL
Escherichia coli (K-12)
  MIC: 0.78 µg/mL
[2]
  MIC: 1.56 µg/mL
[3]
  MIC: 25 µg/mL
[4]
  MIC: 12.5 µg/mL
[5]
  MIC: 0.78 µg/mL
[6]; [21]
  MIC: 1.56 µg/mL
[7]
  MIC: 1.56 µg/mL
[8]
  MIC: 3.13 µg/mL
Proteus rettgeri (T-2)
  MIC: 1.56 µg/mL
[9]
  MIC: 3.13 µg/mL
[10]
  MIC: 3.13 µg/mL
[11]
  MIC: 6.25 µg/mL
Shigella flexneri (K-A)
  MIC: 0.2 µg/mL
[12]
  MIC: 25 µg/mL
[13]; [25]
  MIC: 0.78 µg/mL
Escherichia coli (26R03)
  MIC: 1.56 µg/mL
[14]
  MIC: 3.13 µg/mL
[15]
  MIC: 12.5 µg/mL
[16]
  MIC: 12.5 µg/mL
Proteus morganii (C-39)
  MIC: 3.13 µg/mL
[17]
  MIC: 0.78 µg/mL
[18]
  MIC: 6.25 µg/mL
[19]; [22]
  MIC: 0.2 µg/mL
[20]; [24]
  MIC: 0.2 µg/mL
